“Also recorded” adds a separate entry of the source.
Experiments:
[1] = test system: Lewis Lung Carcinoma cells; assay: In vivo antitumor activity against Lewis Lung Carcinoma
Procedure: (§1) Male BDF1 mice (6 weeks old) were inoculated subcutaneously in the right flank region with Lewis Lung Carcinoma cells (1×10^5 cells/body) on day 0. PLH [(−)-PLH content; 41.7%] was suspended in 10% ethanol-saline, and was administered daily at a dose of 24 mg/kg, 72 mg/kg, or 240 mg/kg intraperitoneally, as a single injection (0.2 ml/body), from days 1 to 14. Each group consisted of six mice. Mice were weighed, and the length (L) and the width (W) of the tumor were measured three times a week. On day 15, mice were sacrificed, and the tumor was excised and weighed. The estimated tumor weight (ETW) was calculated according to the following formula:
(§2) ETW (mg)=L (mm)×W^2 (mm^2 )/2,
where L represents the length of the tumor and W represents the width of the tumor. The suppression rate was calculated according to the following formula:
(§3) Suppression rate (%)=[1×(TWt/TWc)]×100,
(§4) Average and standard errors were calculated for each group. Variance analysis was performed by the Bartlett method (significance level: 5%), and if the variance was uniform, a Dunnett's multiple comparison test was performed. However, if the variance was not uniform, rank conversion was performed followed by variance analysis again by the Bartlett method (significance level: 5%). Significance was established at the p<0.05 level.

Colon 26 cells = assay: In vivo antitumor activity against Colon 26
Procedure: as §1, §2, §3, §4
Male CDFI mice (6 weeks old) were inoculated subcutaneously in the right flank region with Colon 26 cells (1×10^5 cells/body) on day 0. Each group consisted of six mice. Preparation and administration of PLH, and the evaluation of antitumor activity was carried out as described for Lewis Lung Carcinoma, in EXAMPLE 14.

[2] = test system: yeast strain Saccharomyces cerevisise HF7C; assay: Antimicrobial test, liquid culture medium dilution method; type: cell-based
Procedure: Using colibacillus strain JM109 as a gram-negative bacterium, Bacillus natto as a […] and Aspergillus niger IFO6341 as a mold, the following antimicrobial test was conducted by the filter paper agar flat plate method, wherein 100 μg of specimen was placed on 9 mm filter paper, dried in air, and standard agar culture medium was used for bacteria and potato dextrose agar culture medium for mold. […] An antimicrobial test was further conducted by the liquid culture medium dilution method using the yeast strain Saccharomyces cerevisise HF7C.

[3] = test system: A549 cells (human lung carcinoma); assay: A549 proliferation, Alamar Blue assay; type: cell-based
Procedure: Exponentially growing A549 cells were seeded into 96-well tissue culture plates (2×10^3 cells/100 μl/well) and cultured for 16 hours. (−)-PLH or CLC was then added to each well at various concentrations, and the cells were cultured for an additional 48 hours. Live cells were counted using Alamar Blue™ from BioSource International (Camarillo, Calif.) as described in Ahmed, S. A., J. Immunol. Methods, (1994), 170, 211-24.

C. albicans 90028 = assay: Antifungal susceptibility testing, broth dilution (NCCLS M38-A); type: cell-based, Candida albicans; conditions: Candida albicans; C. albicans 90028; 80% reduction in turbidity; read-out: MIC
Procedure: (§5) Antifungal susceptibility testing was accomplished according to the methods outlined in the National Committee for Clinical Laboratory Standards, M38-A “Reference Method for Broth Dilution Antifungal Susceptibility Testing of Conidium-Forming Filamentous Fungi; Approved Standard.” This includes testing in RPMI-1640 with glutamine and without bicarbonate, an inoculum size of 0.4-5×10^4, and incubation at 30 or 35° C. for 48 hours. […] Drug concentrations were 0.03-16 μg/ml for the investigational compounds, 0.015-8 μg/ml for itraconazole and griseofulvin.
(§6) The minimum lethal concentration (MLC) was determined by plating […] from the MIC concentration and each concentration above the MIC. […] When a MIC was obtained, a minimum fungicidal concentration (MFC) was determined to assess the fungistatic/fungicidal nature of the compound. […] The compound is scored as fungistatic if the cells are able to resume growth and fungicidal if no regrowth is possible because the compound had killed the organisms.

C. albicans 10231 = assay: as above; type: cell-based, Candida albicans; conditions: Candida albicans; C. albicans 10231; 80% reduction in turbidity; read-out: MIC
Procedure: as §5, §6

WiDr (colon) = assay: Antiproliferative activity, MTT assay (Table 7); type: cell-based; conditions: Homo sapiens, optical purity over 99.8%
Procedure: (§7) In order to examine detailed biological activity, especially antitumor activity of both (+)- and (−)-phenylahistin, resolution of (+)- and (−)-phenylahistin using chiral HPLC was conducted. By repeating chiral separation twice or three times, each enantiomer with an optical purity over 99.8% was obtained, and each enantiomer was recrystallizes from ethanol-hexane mixture.
(§8) Antitumor activity of (+)- and (−)-phenylahistin was examined against seven human cancer cell lines including A431, WiDr, TE-671, Hela, MCF7, A-549 and K562 cells.

A549 (lung) = assay: Antiproliferative activity, MTT assay (Table 7); type: cell-based; conditions: Homo sapiens, optical purity over 99.8%
Procedure: as §7, §8

A-431 (damal) = assay: Antiproliferative activity, MTT assay (Table 7); type: cell-based; conditions: Homo sapiens, optical purity over 99.8%
Procedure: as §7, §8

K562 (leukemia) = assay: Antiproliferative activity, MTT assay (Table 7); type: cell-based; conditions: Homo sapiens, optical purity over 99.8%
Procedure: as §7, §8

Hela (ovary) = assay: Antiproliferative activity, MTT assay (Table 7); type: cell-based; conditions: Homo sapiens, optical purity over 99.8%
Procedure: as §7, §8

MCF7 (breast) = assay: Antiproliferative activity, MTT assay (Table 7); type: cell-based; conditions: Homo sapiens, optical purity over 99.8%
Procedure: as §7, §8

Microtubule protein = assay: Electron microscopy of microtubule protein polymerization; type: biochemical, bovine; conditions: 100 μM, 37° C. for 20 min
Procedure: Microtubule protein (1.5 mg/ml) was polymerized at 37° C. for 20 min in the presence of 100 μM (−)-PLH or vehicle (DMSO). A portion of each sample was diluted 5-fold with 1% glutaraldehyde in the microtubule assembly buffer. Samples were then placed on formvar- and carbon-coated grids, stained with 2% uranyl acetate, and examined using a JEOLJEM-1200 EXII electron microscope JEOL (Tokyo, Japan).

bovine brain tubulin = assay: [^3H]VLB binding competition assay; conditions: DEAE-cellulose filter method; listed as (−)-PLH
[4] = calculated from (−)-PLH content 41.7%

C=CC(C)(C)c1[nH]cnc1/C=C1\NC(=O)[C@H](Cc2ccccc2)NC1=O (racemic) [PLH, phenylahistin]
rate of suppression (excised tumor weight) ([1]; 24 mg/kg/day): 9.9% | weight of the excised tumor on the fifteenth day ([1]; 24 mg/kg/day): 2,941 mg | estimated tumor weight (ETW) ([1]; 24 mg/kg/day, day 7): 86 mg | estimated tumor weight (ETW) ([1]; 24 mg/kg/day, day 15): 2,244 mg | rate of suppression (excised tumor weight) ([1]; 72 mg/kg/day): 27.1% | weight of the excised tumor on the fifteenth day ([1]; 72 mg/kg/day): 2,380 mg | estimated tumor weight (ETW) ([1]; 72 mg/kg/day, day 7): 34 mg | estimated tumor weight (ETW) ([1]; 72 mg/kg/day, day 15): 2,142 mg | mice died ([1]; 72 mg/kg/day, on day 11): 1 mouse | body weight ([1]; 240 mg/kg/day): markedly lower than control values after day 3, and significantly lower on day 6 | rate of suppression (excised tumor weight) ([1]; 240 mg/kg/day): 81.0% | weight of the excised tumor on the fifteenth day ([1]; 240 mg/kg/day): 619 mg | estimated tumor weight (ETW) ([1]; 240 mg/kg/day, day 7): 34 mg | suppression of the ETW ([1]; 240 mg/kg/day, day 10): 81.8% | suppression of the ETW ([1]; 240 mg/kg/day, day 13): 82.3% | estimated tumor weight (ETW) ([1]; 240 mg/kg/day, day 15): 617 mg | suppression of the ETW ([1]; 240 mg/kg/day, day 15): 73.2% | mice died ([1]; 240 mg/kg/day, on day 13): 1 mouse | body weight ([1]; 24 and 72 mg/kg/day): little change in body weight | 95% confidence limit of ED50 ([1]; PLH with (−)-PLH content 41.7%): 22.0˜504.1 mg/kg/day | ED50 ([1]; linear regression of suppression rate, PLH with (−)-PLH content 41.7%): 105.3 mg/kg/day | mice died ([1]; mouse, in vivo): None | rate of suppression (excised tumor weight) (Colon 26 cells; 24 mg/kg/day): 4.0% | weight of the excised tumor on the fifteenth day (Colon 26 cells; 24 mg/kg/day): 1,113 mg | body weight (Colon 26 cells; 24 mg/kg/day and 72 mg/kg/day): No marked changes in the weight | increments of ETW (Colon 26 cells; 24 mg/kg/day and 72 mg/kg/day): slightly lower than those of the control group | rate of suppression (excised tumor weight) (Colon 26 cells; 72 mg/kg/day): 27.3% | weight of the excised tumor on the fifteenth day (Colon 26 cells; 72 mg/kg/day): 843 mg | body weight (Colon 26 cells; 240 mg/kg/day): lower than that of the control group from day 3 | mice died (Colon 26 cells; 240 mg/kg/day): one mouse died on day 12, two died on day 13 and one died on day 14 | rate of suppression (excised tumor weight) (Colon 26 cells; 240 mg/kg/day): 81.8% | weight of the excised tumor on the fifteenth day (Colon 26 cells; 240 mg/kg/day): 211 mg | ETW (Colon 26 cells; 240 mg/kg/day, day 7): 14 mg | suppression rate (ETW) (Colon 26 cells; 240 mg/kg/day, day 10): 64.4% | suppression rate (ETW) (Colon 26 cells; 240 mg/kg/day, day 13): 78.8% | ETW (Colon 26 cells; 240 mg/kg/day, day 15): 254 mg | suppression rate (ETW) (Colon 26 cells; 240 mg/kg/day, day 15): 85.4% | 95% confidence limit of ED50 (Colon 26 cells; PLH with (−)-PLH content 41.7%): 29.0˜397.7 mg/kg/day | ED50 (Colon 26 cells; PLH with (−)-PLH content 41.7%): 107.3 mg/kg/day | mice died (Colon 26 cells; mouse, in vivo): No mice died | antimicrobial activity [2]: no antimicrobial activity

C=CC(C)(C)c1[nH]cnc1/C=C1\NC(=O)[C@H](Cc2ccccc2)NC1=O [(−)-phenylahistin]
95% confidence limit of ED50, as (−)-PLH [1, 4]: 9.2˜210.2 mg/kg/day | ED50, calculated dose of (−)-PLH [1, 4]: 43.9 mg/kg/day | IC50 ([3]; Homo sapiens, A549, read-out: 50% inhibitory concentration (IC50), proliferation of A549 cells, 48 hours): 300 nM | fold less potent than CLC, A549 proliferation ([3]; versus CLC under the assay conditions): 5 fold | 95% confidence limit of ED50, as (−)-PLH (Colon 26 cells; [4]): 12.1˜165.8 mg/kg/day | ED50, calculated dose of (−)-PLH (Colon 26 cells; [4]): 44.7 mg/kg/day | MIC (C. albicans 90028): > 70 µg/mL | MIC (C. albicans 10231): > 70 µg/mL | IC50 (WiDr (colon)): 180 nM | IC50 (A549 (lung)): 300 nM | IC50 (A-431 (damal)): 220 nM | IC50 (K562 (leukemia)): 190 nM | IC50 (Hela (ovary)): 200 nM | IC50 (MCF7 (breast)): 330 nM | microtubule structures by electron microscopy (Microtubule protein): did not contain such structures | effect on [^3H]VLB binding to tubulin (bovine brain tubulin): not inhibited; also recorded: slightly enhanced
